This note sets out measurements from patent US20240327359A1, “3-ISOXAZOLIDINONE COMPOUND, PREPARATION METHOD, HERBICIDAL COMPOSITION AND APPLICATION THEREOF” (QINGDAO KINGAGROOT CHEMICAL COMPOUND CO., LTD., priority 2021, published 2024).

Holding throughout (format): in vivo
For one data set, the system named is Descurainia sophia. Description: Weeding effect in pre-emergence stage. Particulars: 2 weeks. The text has this: (§1) The activity level criteria for plant damage (i.e., growth control rate) are as follows:
(§2) The above growth control rates are fresh weight control rates.
(§3) Monocotyledonous and dicotyledonous weed seeds (Descurainia sophia, Capsella bursa-pastoris, Abutilon theophrasti, Galium aparine, Stellaria media, Lithospermum arvense, Rorippa indica, Alopecurus aequalis, Alopecurus japonicus, Eleusine indica, Beckmannia syzigachne, Sclerochloa dura, Phleum paniculatum, Veronica didyma, Bromus japonicus, Aegilops tauschii, Phalaris arundinacea, Amaranthus retroflexus, Chenopodiaceae, Commelina communis, Sonchus arvensis, Convolvulus arvensis, Cirsium setosum, Solanumnigrum, Acalypha australis, Digitaria sanguinalis, Echinochloa crusgalli, Setaria viridis, Setaria glauca, Leptochloa chinensis, Monochoria vaginalis, Sagittaria trifolia, Scirpus juncoides, Cyperus rotundus, Cyperus iria, Cyperus difformis, Fimbristylis, Portulaca oleracea, Xanthium sibiricum, Pharbitis nil, Conyza Canadensis, etc.) and major crop seeds (wheat, corn, rice, soybean, cotton, oilseed rape, millet, sorghum, potato, sesame, ricinus, etc.) were placed in plastic pots filled with soil, then covered with 0.5-2 cm of soil, allowed to grow in a good greenhouse environment. The test plants were treated on the day of sowing. The tested compounds of the present invention were respectively dissolved in acetone, then added with Tween 80, diluted with a certain amount of water to obtain a solution of a certain concentration, and sprayed by a spray tower onto the plants. After the application, the plants were cultured for 2 weeks in the greenhouse, and then the experimental results of the weeding were recorded. The doses of the used compounds were 3, 6, 12, 24, 48 g ai./mu (1 mu=1/15 ha), and the averages were obtained from three replicates.

For a further data set, the system named is Leptochloa chinensis. The data set can be described thus: Weeding effect in pre-emergence stage. Particulars: 2 weeks.
Source text: as §1, §2, §3

Another data set deals with Lolium perenne. Description: Weeding effect in pre-emergence stage. To be noted: 2 weeks.
Source text: as §1, §2, §3

The test system of a further data set is Echinochloa crusgalli. The data set can be described thus: Weeding effect in pre-emergence stage. Particulars: 2 weeks.
Source text: as §1, §2, §3

A further data set deals with Veronica didyma. Description: Weeding effect in pre-emergence stage. To be noted: 2 weeks.
Source text: as §1, §2, §3

Another data set relates to wheat. Description: Post-emergence stage, crop damage. To be noted: 720 g a.i./ha, 3 weeks after application.
Source text: as §1, §2
(§4) Monocotyledonous and dicotyledonous weed seeds (Descurainia sophia, Capsella bursa-pastoris, Abutilon theophrasti, Galium aparine, Stellaria media, Lithospermum arvense, Rorippa indica, Alopecurus aequalis, Alopecurus japonicus, Eleusine indica, Beckmannia syzigachne, Sclerochloa dura, Phleum paniculatum, Veronica didyma, Bromus japonicus, Aegilops tauschii, Phalaris arundinacea, Amaranthus retroflexus, Chenopodiaceae, Commelina communis, Sonchus arvensis, Convolvulus arvensis, Cirsium setosum, Solanumnigrum, Acalypha australis, Digitaria sanguinalis, Echinochloa crusgalli, Setaria viridis, Setaria glauca, Leptochloa chinensis, Monochoria vaginalis, Sagittaria trifolia, Scirpus juncoides, Cyperus rotundus, Cyperus iria, Cyperus difformis, Fimbristylis, Portulaca oleracea, Xanthium sibiricum, Pharbitis nil, Conyza Canadensis, etc.) and major crop seeds (wheat, corn, rice, soybean, cotton, oilseed rape, millet, sorghum, potato, sesame, ricinus, etc.) were placed in plastic pots filled with soil, then covered with 0.5-2 cm of soil, allowed to grow in a good greenhouse environment. Two weeks after sowing, the test plants were treated in the 2-3 leaf stage. The tested compounds of the present invention were respectively dissolved in acetone, then added with Tween 80 and 1.5 liter/ha of emulsifiable concentrate of methyl oleate as synergist, diluted with a certain amount of water to obtain a solution of a certain concentration, and sprayed by a spray tower onto the plants. After the application, the plants were cultured for 3 weeks in the greenhouse, and then the experimental results of the weeding were recorded. The doses of the used compounds were 45, 90, 180, 360, 720 g a.i./ha, and the averages were obtained from three replicates.

Another data set concerns rice. The data set can be described thus: Post-emergence stage, crop damage. To be noted: 720 g a.i./ha, 3 weeks after application.
Source text: as §1, §2, §4

For `CC1(C)CON(Cc2ccc(Cl)cc2Br)C1=O` [Compound 1], the “weeding effect in pre-emergence stage, activity level (growth control rate)” value (from here on “weeding effect in pre-emergence stage”) in the data set on Descurainia sophia (3 g a.i./mu) was 7 (Level 7: growth control rate is greater than or equal to 70% and less than 80%); in the data set on Descurainia sophia (6 g a.i./mu), 9; with Descurainia sophia (12 g a.i./mu), 9; in the data set on Descurainia sophia (24 g a.i./mu) it was 9; in the data set on Leptochloa chinensis (3 g a.i./mu) it was 9; in the data set with Leptochloa chinensis (6 g a.i./mu), 9. Moreover, the “weeding effect in pre-emergence stage” value in the data set with Leptochloa chinensis (12 g a.i./mu) was 9; in the data set with Leptochloa chinensis (24 g a.i./mu), 9; with Lolium perenne (6 g a.i./mu) it was 2 (Level 2: growth control rate is greater than or equal to 15% and less than 30%); in the data set on Lolium perenne (24 g a.i./mu) it was 9; with Echinochloa crusgalli (3 g a.i./mu), 8 (Level 8: growth control rate is greater than or equal to 80% and less than 100%); in the data set with Echinochloa crusgalli (6 g a.i./mu), 9. Also, the “weeding effect in pre-emergence stage” value in the data set on Echinochloa crusgalli (12 g a.i./mu) was 9; in the data set on Echinochloa crusgalli (24 g a.i./mu), 9; in the data set with Veronica didyma (6 g a.i./mu), 8 (Level 8: growth control rate is greater than or equal to 80% and less than 100%); in the data set on Veronica didyma (12 g a.i./mu), 9; with Veronica didyma (24 g a.i./mu), 9. Also, the “plant damage level (growth control rate) on crop, post-emergence stage” value in the data set with wheat is 1 (Level 1: growth control rate is greater than or equal to 5% and less than 20%); in the data set on rice it was 1 (Level 1: growth control rate is greater than or equal to 5% and less than 20%).
